Experimental data reported in patent US4786755A, “Diphenic acid monoamides” (Warner-Lambert Company, priority 1986, dated 1988).
Where two headings read alike, the source gives them in different places.

Tests used:
leukotriene receptor = molecular target: T1, leukotriene receptor (Cavia porcellus, UniProt Q2NNR5); experiment: Binding of ^3 H-Leukotriene D4 to Guinea Pig Lung Membranes (RBL); conditions: ^3 H-LTD4, guinea pig lung membranes; read-out: IC50 RBL1
T1 construct: 20 mg original tissue wet weight of guinea pig lung membranes; tissue Kuiper Rabbit Farm, Gary, IN (animals); host or cells: guinea pig lung, crude membranes
T1 sequence (Q2NNR5 1-340): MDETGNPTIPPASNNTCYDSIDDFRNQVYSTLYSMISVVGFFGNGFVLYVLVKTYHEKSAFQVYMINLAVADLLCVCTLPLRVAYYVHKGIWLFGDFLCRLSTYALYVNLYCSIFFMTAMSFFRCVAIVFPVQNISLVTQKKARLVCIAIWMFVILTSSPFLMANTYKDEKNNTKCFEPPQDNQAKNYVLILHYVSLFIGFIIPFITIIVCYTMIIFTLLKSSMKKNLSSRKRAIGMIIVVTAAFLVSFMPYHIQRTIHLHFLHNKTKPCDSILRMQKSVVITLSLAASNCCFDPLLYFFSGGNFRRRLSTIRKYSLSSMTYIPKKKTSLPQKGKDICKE
Description: Additionally, the activity, of the compounds having the Formula I of the present invention is determined by the well known leukotriene receptor binding assay that is described by R. F. Bruns, W. J. Thomsen and T. A. Pugsley in Life Sciences, 33, 645 (1983) or the Herxheimer in vivo antiallergy test described in H. Herxheimer, J. Physiol. (London), Vol. 177, p. 251 (1952).
Binding of ^3 H-Leukotriene D4 to Guinea Pig Lung Membranes (RBL)
[14,15-^3 H]leukotriene D4 (^3 H-LTD4) (25 Ci/mmol and 40 Ci/mmol) is purchased from New England Nuclear. Unlabeled LTC4 is a gift of Ono Pharmaceuticals (Japan). LTC4, LTD4, and LTE4 are purchased as methyl esters from Paesel GmbH (Frankfurt, W. Germany). Concentrations of the Paesel leukotrienes are calculated from their absorbance at 280 nm. Leukotriene esters are saponified overnight under N2 in 3.3% potassium carbonate at room temperature. Tritiated leukotrienes are stored as received from New England Nuclear at -20° C. Ono LTC4 (5 μg/ml is stored at -60° C. in phosphate buffer pH 6.8. Saponified Paesel leukotrienes are stored at -60° C. in 3.3% potassium carbonate (pH 9.0-9.5). Aliquots of leukotrienes are taken from stock solutions immediately after thawing, after which the stock solutions are immediately refrozen. 2-Amino-2-(hydroxymethyl)-1,3-propanediol (Tris) is Sigma pH 7.7 pre-set crystals, and dimethylsulfoxide is Aldrich Gold Label.
Preparation of crude lung membranes
Two pairs of lungs (1.3 g) from freshly sacrificed 300 g male guinea pigs (older animals gave substantially lower binding) from Kuiper Rabbit Farm, Gary, IN are disrupted with a Polytron PT 10 (setting 4) for 30 seconds in 20 ml ice-cold 50 mM Tris adjusted with HCl to pH 7.7 at 25° C. (Tris buffer), filtered through a single layer of gauze to remove connective tissue, and centrifuged at 50,000 xg for ten min. The pellet is resuspended by homogenization with a Polytron in 20 ml Tris buffer, centrifuged at 50,000 xg for ten min., resuspended, incubated at 37° C. for 30 minutes, and centrifuged again. The final pellet is resuspended in Tris buffer and either used fresh or stored at -70° C.
All incubations are in triplicate for 60 minutes at 25° C. in 12×75 mm polystyrene tubes containing 1 ml Tris buffer with 20 mg original tissue wet weight of guinea pig lung membranes, 0.2 nM ^3 H-LTD4 (6,000-11,000 cpm), 10 mM MgCl2, and 1% dimethylsulfoxide. Leukotrienes are diluted in Tris buffer. All other test compounds are dissolved at 10 mM in dimethylsulfoxide on the same day as the experiment, and diluted in dimethylsulfoxide to 100× the final incubation concentration. Control incubations receive an equal volume (10 μl) of dimethylsulfoxide; the resulting concentration of dimethylsulfoxide had no effect on binding. ^3 H-LTD4 is diluted to 2 nM in Tris buffer. The membrane suspension (20 mg/0.89 ml) contains sufficient MgCl2 to give 10 mM final concentration in the incubation. […] All additions are performed at 0° C. Immediately after the last addition, the incubation is initiated by agitating the rack of tubes on a vortex mixer and warming to 25° C. in a water bath. Tubes are vortexed at least once more during the incubation to ensure that the membranes remained suspended. Incubations are terminated after 60 minutes by filtering under reduced pressure through 25 mm Whatman GF/B filters followed by rapid washing three times with 4 ml of ice-cold Tris buffer. Filters are added to scintillation vials with 8 ml Formula 947 (New England Nuclear), left overnight, shaken, and the radioactivity counted in a scintillation counter (efficiency 40%). Nonspecific binding, defined as binding of ^3 H-LTD4 in the presence of 100 nM LTC4, is 300-500 cpm for all lots of ^3 H-LTD4. Binding to the filters in the absence of tissue is about 100 cpm, and is not affected by unlabeled LTC4. Specific binding, defined as total binding minus nonspecific binding, varied considerably from lot to lot of ^3 H-LTD4. […]

Human Basophils = experiment: Histamine Release from Human Basophils (HHB); type: cell-based; conditions: Homo sapiens, 33 μM cpd.
Description: Histamine Release from Human Basophils (HHB) Procedure for Quantitating Active Histamine Release, and its Inhibition by Drugs, from Basophils of Human Blood Using an Automated Fluorometric Histamine Assay
Mediator (histamine) release from human blood basophils is an assay which provides a model for evaluating potential antiallergy (mediator release inhibitors) compounds.
Blood from allergic donors is obtained from volunteers through the Community Research Clinic. The leukocytes are removed after Hespan® sedimentation, washed and concentrated using calcium and magnesium free Hepes buffered saline and resuspended in Hepes Hepes buffered saline with 1 mM calcium and magnesium added back. The cells are incubated briefly at room temperature with either buffer alone (for measuring spontaneous release and challenge agent stimulated release) 6% perchloric acid (for measuring total available histamine in the cells) or drug at various concentrations. The cells are then either treated with buffer alone (to measure control spontaneous and drug effect on spontaneous release) or appropriate challenge agent (e.g., anti-IgE, antigen) mixed and incubated for 45 minutes at 37° C. in a shaking water bath. The reaction is stopped by centrifugation and the supernate is poured into autoanalyzer sample cups and samples assayed for assayed for histamine content using an automated fluorometric assay. By comparing the histamine release of drug-treated cells and the challenge agent controls, drug inhibition of mediator (histamine) release can be evaluated.
Histamine release is induced by (1) an aqueous antigen extract (short rageweed or house dust), or (2) anti-IgE antisera. Whole human blood is obtained from volunteers through the Community Research Clinic (CRC-92). Volunteers are chosen on the basis of adequate histamine release induced by antigen, or antiIgE antisera challenge. Leukocytes are incubated in vitro with the challenge agents at several concentrations. Dose-response curves for each volunteer, using each challenge agent, are generated. Test compounds are evaluated for inhibition of a near maximal response to one or more challenge agents. By including appropriate controls, it is possble to measure the effect of the test compound, at various concentrations, in several ways: (1) the effect of the compound on histamine release for each challenge agent; (2) the effect of the test compound on spontaneous release of histamine in the absence of the challenge agent (buffer alone); and (3) the effect of the test compound on the histamine assay.
Histamine is assayed using an automated continuous flow system which quantitates samples of 0.4 ml or more in volume, and concentrations of approximately 0.5 ng/ml or more. The rate of analysis is 30 samples/hour.
Methods of preparing leukocytes for this assay are described by Theuson, et al, J. of Immunology, Vol. 123, p. 426 (1979).
Samples are run in triplicate, using either 1.5 ml polypropylene capped reaction tubes, or 5.0 ml plastic uncapped tubes. Test compounds and challenge agents are prepared in HACM buffer, as described above. Fixed volume pipettes are used.
Test compound or vehicle control is added to three reaction tubes at 1.5×the final desired concentration (i.e., 400 μl of test compound per 600 μl total reaction volume). One hundred μl of cells is added to each tube and the mixture is incubated for eight minutes at room temperature, and two minutes at 37° C. before antigen or other stimulus challenge. One hundred μl of the challenge agent at 6× the final concentration is then added, and the final mixture is incubated at 37° C. for 45 minutes in a shaking water bath. This ensures that the cell preparation is constantly in suspension. The reaction is stopped by centrifugation at 2000 RPM for three minutes at 4° C. The supernate (.perspectiveto.500 μl) is poured into 2.0 ml autoanalyzer beakers and assayed for histamine by the fluorometric method. […]

[1] = test system: Isolated Guinea Pig Lung Parenchyma; experiment: Smooth Muscle Receptor Agonism-Antagonism Activity Evaluations In Vitro (IVAS), LTC4-induced contraction; type: cell-based
Description: Smooth Muscle Receptor Agonism-Antagonism Activity Evaluations In Vitro (IVAS) Isolated Guinea Pig Lung Parenchyma
The potency of a test compound for receptor stimulation or antagonism, for example, can easily be determined since the concentration of the compound to which the muscle cell, or specialized responsive area on this cell, is exposed can be easily controlled and correlated with the recorded activity of muscle contraction or relaxation.
The procedures described herein are specifically concerned with the definition of a test drug action on isolated lung strips. Drug action is characterized either by an action per se on the tissues or by interaction with known smooth muscle receptor stimulants or antagonists.
Usually, the tests will be used to evaluate the ability of a test compound to antagonize the contraction induced by standard agonists in this case LTC4. A relative potency is derived by comparison with one of the standard blocking drugs. In caution, relative potencies of test compounds to known standards are valid only if full dose response curves are generated and the compound compared generate parallel dose/response curves with common maxima. Appropriate "within-trial" comparisons are also necessary.
Molecular antagonists compete with the agonist for the receptor. […] A physiological antagonist produces a response by action on a different receptor that causes an effect in opposition to the agonism.
A permanent isolated bath system is used which facilitates the vertical suspension of a segment of tissue in a small volume of a specific nutritive buffer. Frittered glass terminals provide dispersed bubbles of 95% oxygen and 5% carbon dioxide at the base of the individual tissue baths and the buffer reservoir. All baths and the reservoir are double-jacketed and water at 37° C. is circulated through the jacket of the baths to provide stable temperature regulation. The baths are arranged so that fresh solution from the reservoir passes through a jacketed glass coil to the base of the bath. The bubbling gas stirs the bath solution. During equilibration, fresh solution enters and excess solution is allowed to overflow. Unless a particular drug is required throughout the experiment and it is incorporated in the buffer, individual drugs are introduced directly into the bath by long hypodermic needles to the base of the bath without disturbing the tissue. Drugs are removed by rapidly draining the tissue bath from the bottom and refilling. Tissues are washed a minimum of six times. The emptying and refilling sequence takes only five seconds.
The contraction and relaxation of the smooth muscle preparation can be recorded either isotonically (change in length) or isometrically (change in tension). Isometric transducers are more sensitive and proportional. Isometric contractions are recorded electronically using Grass FT 0.03C force displacement transducers and Beckman Dynagraph recorders. The tissue is suspended vertically with one end of the segment anchored to the bottom of the bath and the other end attached to the mechanical electrical transducer muscle level. The electrical output of this transducer moves a pen on a moving chart in proportion to the force displacement.
Lung tissue is obtained from normal male guinea pigs. The heart and lungs are removed as a unit, placed in buffer, and the lungs are perfused with buffer by the spontaneously beating heart for several minutes.

[2] = Tripeptide challenge, read-out: HHB (Tripeptide), percent inhibition of histamine release
[3] = antigen challenge, read-out: HHB (antigen), percent inhibition of histamine release

Row | SMILES | IC50 (leukotriene receptor) [µM] | inhibition at 33 µM (Human Basophils; [2]) [%] | inhibition at 33 µM (Human Basophils; [3]) [%] | response (r1), of maximum ([1]; 1 ng/ml LTC4, isolated lung strip) | contraction, of maximum ([1]; 3×10^-5 M, isolated guinea pig lung strip) | minimal effective concentration ([1]; Cavia porcellus, isolated guinea pig lung strip, read-out: threshold dose (contraction of lung strip)) [µM]
1 | O=C(O)c1ccccc1-c1ccccc1C(=O)Nc1ccc(CCc2ccc(C(F)(F)F)cc2)cc1 [Example 10] | 9.7 | 74 | 62 |  |  | 
2 | O=C(O)c1ccccc1-c1ccccc1C(=O)Nc1ccccc1CCc1ccc(Cl)c(Cl)c1 [Example 12, [1,1'-Biphenyl]-2-carboxylic acid, 2'-[[[2-[2-(3,4-dichlorophenyl)ethyl]phenyl]amino]carbonyl]-] | 13.7 | 99 | -42 |  |  | 
3 | CC(C)(C)c1cc(CCc2ccc(NC(=O)c3ccccc3-c3ccccc3C(=O)O)cc2)cc(C(C)(C)C)c1O [Example 14, [1,1'-Biphenyl]-2-carboxylic acid, 2'-[[[4-[2-[3,5-bis(1,1-dimethylethyl)-4-hydroxyphenyl]ethyl]phenyl]amino]carbonyl]-] | 3.7 | 96 | 41 |  |  | 
4 | O=C(O)c1ccccc1-c1ccccc1C(=O)Nc1cccc(Cc2ccc(Cl)c(Cl)c2)c1 [Example 17, [1,1'-Biphenyl]-2-carboxylic acid, 2'-[[[3-[(3,4-dichlorophenyl)methyl]phenyl]amino]carbonyl]-] | 10.5 | 97 |  |  |  | 
5 | Cc1ccc(CCc2ccc(NC(=O)c3ccccc3-c3ccccc3C(=O)O)cc2)cc1 [Example 18, [1,1'-Biphenyl]-2-carboxylic acid, 2'-[[[4-[2-(4-methylphenyl)ethyl]phenyl]amino]carbonyl]-] | 16.5 | 98 | 60 |  |  | 
6 | CCCCC/C=C\C\C=C/C=C/C=C/[C@@H](SC[C@H](NC(=O)CC[C@H](N)C(=O)O)C(=O)NCC(=O)O)[C@@H](O)CCCC(=O)O [LTC4, leukotriene C4] |  |  |  | 15-20% |  | 
7 | NCCc1c[nH]cn1 [histamine] |  |  |  |  | approximately 75% | ~3
